US10160747B2, “Compounds and methods for kinase modulation, and indications therefor” (Plexxikon Inc., priority 2016, dated 2018)

Tests used:
Format in all cases: biochemical
FLT3-D835Y = target: T1, FLT3-D835Y (Homo sapiens, UniProt P36888, D835Y); test: FLT3-D835Y recombinant enzyme kinase assay (AlphaScreen); conditions: 8 pt, GMean
T1 construct: purchased Invitrogen PV3967
T1 sequence (P36888 27-993 D835Y): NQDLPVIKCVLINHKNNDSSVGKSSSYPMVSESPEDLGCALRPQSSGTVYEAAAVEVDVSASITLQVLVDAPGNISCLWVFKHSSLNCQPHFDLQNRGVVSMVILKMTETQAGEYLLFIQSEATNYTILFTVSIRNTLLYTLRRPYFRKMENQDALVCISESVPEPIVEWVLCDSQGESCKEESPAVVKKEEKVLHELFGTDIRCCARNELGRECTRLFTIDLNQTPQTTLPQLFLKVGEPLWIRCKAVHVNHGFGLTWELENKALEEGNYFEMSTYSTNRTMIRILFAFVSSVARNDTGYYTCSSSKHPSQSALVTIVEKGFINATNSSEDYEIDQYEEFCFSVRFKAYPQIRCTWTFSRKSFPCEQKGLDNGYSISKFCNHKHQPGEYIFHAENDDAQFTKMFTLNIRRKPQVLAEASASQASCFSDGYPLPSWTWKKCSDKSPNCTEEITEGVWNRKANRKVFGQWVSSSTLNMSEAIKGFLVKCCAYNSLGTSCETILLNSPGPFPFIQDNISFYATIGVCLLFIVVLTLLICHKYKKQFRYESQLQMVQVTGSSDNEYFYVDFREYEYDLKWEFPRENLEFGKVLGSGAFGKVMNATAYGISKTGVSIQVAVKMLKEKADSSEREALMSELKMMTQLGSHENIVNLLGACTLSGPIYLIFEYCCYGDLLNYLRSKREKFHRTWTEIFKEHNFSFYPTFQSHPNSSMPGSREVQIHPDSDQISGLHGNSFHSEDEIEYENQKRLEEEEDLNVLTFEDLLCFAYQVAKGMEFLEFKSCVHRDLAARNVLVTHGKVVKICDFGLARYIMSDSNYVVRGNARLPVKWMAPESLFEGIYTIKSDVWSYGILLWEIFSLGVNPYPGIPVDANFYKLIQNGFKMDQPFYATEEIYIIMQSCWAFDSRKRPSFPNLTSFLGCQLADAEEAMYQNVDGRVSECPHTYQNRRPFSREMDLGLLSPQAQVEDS
Method in brief: (§1)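 Substrate 30 nM biotin-GG(EEEEY)10EE; ATP 10 μM (FLT3-ITD, FLT3-D835Y) or 100 μM (c-KIT). Detection: AlphaScreen PY20 kit, 10 μg/mL beads, RT 20 + 60 min. Readout 580 nm; IC50.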

c-KIT = target: T2, c-KIT (Homo sapiens, UniProt P10721); test: c-KIT recombinant enzyme kinase assay (AlphaScreen); conditions: 100 ATP, 8 pt
T2 construct: purchased Millipore 14-559K
Method in brief: as §1

FLT3-ITD = target: T3, FLT3-ITD (Homo sapiens, UniProt P36888); test: FLT3-ITD recombinant enzyme kinase assay (AlphaScreen); conditions: 8 pt; read-out: FLT3_ITD 8 pt: IC50
T3 sequence (P36888 1-993): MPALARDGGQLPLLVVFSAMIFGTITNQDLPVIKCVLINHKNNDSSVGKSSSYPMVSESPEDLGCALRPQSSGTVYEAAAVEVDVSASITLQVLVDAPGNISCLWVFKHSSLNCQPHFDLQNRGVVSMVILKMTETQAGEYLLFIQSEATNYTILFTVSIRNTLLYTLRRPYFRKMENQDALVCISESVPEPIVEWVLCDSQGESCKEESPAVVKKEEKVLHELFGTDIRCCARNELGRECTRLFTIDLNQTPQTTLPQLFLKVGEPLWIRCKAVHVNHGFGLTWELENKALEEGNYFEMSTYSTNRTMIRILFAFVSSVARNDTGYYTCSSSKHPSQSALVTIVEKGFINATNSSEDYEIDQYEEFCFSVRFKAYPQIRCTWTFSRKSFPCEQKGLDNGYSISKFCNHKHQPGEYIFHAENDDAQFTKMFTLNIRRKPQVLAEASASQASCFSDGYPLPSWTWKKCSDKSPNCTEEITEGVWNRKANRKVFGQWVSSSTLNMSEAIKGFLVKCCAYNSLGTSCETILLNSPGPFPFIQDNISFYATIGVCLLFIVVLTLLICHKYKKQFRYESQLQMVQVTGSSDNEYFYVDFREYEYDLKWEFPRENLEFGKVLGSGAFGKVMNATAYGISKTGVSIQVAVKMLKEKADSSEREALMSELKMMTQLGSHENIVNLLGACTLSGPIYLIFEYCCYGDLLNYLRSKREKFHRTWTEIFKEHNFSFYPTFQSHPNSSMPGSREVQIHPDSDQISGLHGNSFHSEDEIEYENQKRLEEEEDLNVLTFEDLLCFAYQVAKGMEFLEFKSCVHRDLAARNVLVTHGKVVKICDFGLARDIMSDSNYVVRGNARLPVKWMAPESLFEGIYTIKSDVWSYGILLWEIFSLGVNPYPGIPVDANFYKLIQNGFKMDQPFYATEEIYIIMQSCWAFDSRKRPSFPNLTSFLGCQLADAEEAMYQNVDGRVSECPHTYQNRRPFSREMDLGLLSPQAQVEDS
Method in brief: as §1

Measured: IC50

T2 sequence (P10721 26-976): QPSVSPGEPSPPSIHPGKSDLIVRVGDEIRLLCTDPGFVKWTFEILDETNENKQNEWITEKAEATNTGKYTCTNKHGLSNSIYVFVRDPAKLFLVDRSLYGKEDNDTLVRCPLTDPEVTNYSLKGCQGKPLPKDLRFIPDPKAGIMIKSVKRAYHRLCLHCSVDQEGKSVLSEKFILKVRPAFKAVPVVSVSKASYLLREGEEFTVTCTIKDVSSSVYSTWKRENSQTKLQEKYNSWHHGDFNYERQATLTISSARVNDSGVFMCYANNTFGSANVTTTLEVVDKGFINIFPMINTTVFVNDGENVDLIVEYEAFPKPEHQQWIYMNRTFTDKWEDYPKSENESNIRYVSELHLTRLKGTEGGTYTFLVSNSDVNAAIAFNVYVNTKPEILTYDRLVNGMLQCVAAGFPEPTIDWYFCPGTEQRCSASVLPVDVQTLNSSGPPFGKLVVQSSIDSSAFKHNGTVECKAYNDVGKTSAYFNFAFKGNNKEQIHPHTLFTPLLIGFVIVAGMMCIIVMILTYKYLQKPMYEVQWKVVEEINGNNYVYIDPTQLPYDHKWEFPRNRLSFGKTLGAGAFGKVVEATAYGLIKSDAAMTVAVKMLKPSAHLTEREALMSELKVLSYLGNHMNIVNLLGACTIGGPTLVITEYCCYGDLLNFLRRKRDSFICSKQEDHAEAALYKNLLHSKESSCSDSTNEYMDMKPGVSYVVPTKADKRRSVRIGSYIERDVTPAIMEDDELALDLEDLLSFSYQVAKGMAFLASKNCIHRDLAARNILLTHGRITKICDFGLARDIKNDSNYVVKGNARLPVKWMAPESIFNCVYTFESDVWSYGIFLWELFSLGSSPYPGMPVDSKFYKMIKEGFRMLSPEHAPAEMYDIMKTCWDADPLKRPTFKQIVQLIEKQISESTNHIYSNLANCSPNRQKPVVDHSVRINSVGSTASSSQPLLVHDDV

Cn1cc(Nc2ncc(-c3ccc(CC(=O)Nc4cncc(C(F)(F)F)c4)c(F)c3)cn2)cn1 [Compound P-0084, 2-[2-fluoro-4-[2-[(1-methylpyrazol-4-yl)amino]pyrimidin-5-yl]phenyl]-N-[5-(trifluoromethyl)-3-pyridyl]acetamide]
0.0001 to 10 µM: all assays above

Cn1cc(Nc2ncc(-c3ccc(CC(=O)Nc4cncc(C5CC5)c4)c(F)c3)cn2)cn1 [Compound P-0081, N-(5-cyclopropyl-3-pyridyl)-2-[2-fluoro-4-[2-[(1-methylpyrazol-4-yl)amino]pyrimidin-5-yl]phenyl]acetamide]
0.0001 to 10 µM: all assays above

Cn1cc(Nc2ncc(-c3ccc(CC(=O)NCc4ccc(C(F)(F)F)nc4)c(F)c3)cn2)cn1 [Compound P-0087, 2-[2-fluoro-4-[2-[(1-methylpyrazol-4-yl)amino]pyrimidin-5-yl]phenyl]-N-[[6-(trifluoromethyl)-3-pyridyl]methyl]acetamide]
0.0001 to 10 µM: all assays above

O=C(Cc1ccc(-c2cnc(Nc3cnn4ccccc34)nc2)c(F)c1)Nc1cncc(C(F)(F)F)c1 [Compound P-0071, 2-[3-fluoro-4-[2-(pyrazolo[1,5-a]pyridin-3-ylamino)pyrimidin-5-yl]phenyl]-N-[5-(trifluoromethyl)-3-pyridyl]acetamide]
0.0001 to 10 µM: all assays above

Cc1ncc(NC(=O)Cc2ccc(-c3cnc(Nc4cnn(C)c4C)nc3)cc2F)cc1C(F)(F)F [Compound P-0076, 2-[4-[2-[(1,5-dimethylpyrazol-4-yl)amino]pyrimidin-5-yl]-2-fluoro-phenyl]-N-[6-methyl-5-(trifluoromethyl)-3-pyridyl]acetamide]
0.0001 to 10 µM: all assays above

O=C(Cc1ccc(-c2cnc(Nc3cnn4ccccc34)nc2)cc1F)Nc1cncc(C(F)(F)F)c1 [Compound P-0058, 2-[2-fluoro-4-[2-(pyrazolo[1,5-a]pyridin-3-ylamino)pyrimidin-5-yl]phenyl]-N-[5-(trifluoromethyl)-3-pyridyl]acetamide]
0.0001 to 10 µM: all assays above

O=C(Cc1ccc(-c2cnc3[nH]cc(Cl)c3n2)cc1F)Nc1cncc(C(F)(F)F)c1 [Compound P-0061, 2-[4-(7-chloro-5H-pyrrolo[2,3-b]pyrazin-2-yl)-2-fluoro-phenyl]-N-[5-(trifluoromethyl)-3-pyridyl]acetamide]
0.0001 to 10 µM: all assays above

O=C(Cc1ccc(-c2cnc3[nH]nc(C4CC4)c3c2)cc1)Nc1cncc(C(F)(F)F)c1 [Compound P-0073, 2-[4-(3-cyclopropyl-1H-pyrazolo[3,4-b]pyridin-5-yl)phenyl]-N-[5-(trifluoromethyl)-3-pyridyl]acetamide]
0.0001 to 10 µM: all assays above

CCC(=O)c1c[nH]c2ncc(-c3ccc(CC(=O)Nc4cncc(C(F)(F)F)c4)c(F)c3)cc12 [Compound P-0068, 2-[2-fluoro-4-(3-propanoyl-1H-pyrrolo[2,3-b]pyridin-5-yl)phenyl]-N-[5-(trifluoromethyl)-3-pyridyl]acetamide]
0.0001 to 10 µM: all assays above

Cc1ncc(NC(=O)Cc2ccc(-c3cnc4c(c3)C3(CC3)C(=O)N4)cc2F)cc1C(F)(F)F [Compound P-0057, 2-[2-fluoro-4-(2-oxospiro[1H-pyrrolo[2,3-b]pyridine-3,1′-cyclopropane]-5-yl)phenyl]-N-[6-methyl-5-(trifluoromethyl)-3-pyridyl]acetamide]
0.0001 to 10 µM: all assays above
